In patent US20200331882A1, “COMPOUND FOR SIMULTANEOUSLY INHIBITING LSD1 AND HDAC TARGETS AND APPLICATION THEREOF” (PEKING UNIVERSITY SHENZHEN GRADUATE SCHOOL, priority 2018, published 2020):
Read-outs that look alike come from different tables or passages of the source.

Experiments:
Experiment in all cases: CellTiter-Glo cell proliferation
Type in all cases: cell-based
H69AR = conditions: CTG, 72 hours; for % inhibition at top conc.: highest concentration 10/50 μM; for IC50: read-out: Absolute IC50
Procedure: (§1) The effect of the present invention compound ZZY-003 on the cell proliferation of 50 cell lines was evaluated by CellTiter-Glo (CTG) method, and the 50% inhibitory concentration was calculated by detecting the cell viability after treatment with different drug concentrations. The cells were resuscitated and cultured in their respective culture media. The cells in logarithmic growth phase were harvested and the cells were counted by cell counter. The cell viability was detected by Trypan blue exclusion method to ensure that the cell line viability was more than 96%. The cell concentration was adjusted by diluting with the culture medium, and 90 μL cell suspension was added to the 96-well cell plate (including the cell control T0 on the day of drug treatment) to make the cell density reach the specified concentration. The cells in the 96-well plate were cultured overnight at 37° C., 5% CO2 and 95% humidity. 10 μL culture medium was added to the control cell culture plate. CellTiter-Glo reagent and cell culture plate were placed at room temperature to balance for 30 minutes. The same volume of CellTiter-Glo reagent was added to each well. Vibrate on the orbital shaker for 2 min to make the cells fully lytic. The cell culture plate was placed at room temperature to balance for 10 minutes. Chemiluminescence values were read with EnVision. The storage solution was formed by dissolving the tested compound with the corresponding solvent and diluted in gradient to obtain 10 times working concentration solution, and 10 times solution of positive drug was also prepared. 10 μL drug solution was added to each well in the 96-well plate in which the cells were inoculated, and each cell concentration was provided with three duplicate wells. The highest concentration of the tested compound was 10/50 μM, 9 concentrations and 3.16 times dilution. The cells in the 96-well plate added with drug were cultured at 37° C., 5% CO2 and 95% humidity for 72 hours. CellTiter-Glo reagent and drug-treated cell culture plate were placed at room temperature to balance for 30 minutes. The same volume of CellTiter-Glo reagent was added to each well. Vibrate on the orbital shaker for 2 minutes to make the cells fully lytic. The cell culture plate was placed at room temperature to balance for 10 minutes. Chemiluminescence values were read with EnVision. Data processing: […] Cell survival rate (%)=(Lum drug to be detected−Lum culture medium control)/(Lum cell control−Lum culture medium control)×100%; Lum cell control−Lum culture medium control was set to 100%, LumMedium control value was set to 0%;

LN-229 = conditions: CTG, 72 hours; for % inhibition at top conc.: highest concentration 10/50 μM; for IC50: read-out: Absolute IC50
Procedure: as §1

SK-N-FI = conditions: CTG, 72 hours; for % inhibition at top conc.: highest concentration 10/50 μM; for IC50: read-out: Absolute IC50
Procedure: as §1

NCI-H82 = conditions: CTG, 72 hours; for % inhibition at top conc.: highest concentration 10/50 μM; for IC50: read-out: Absolute IC50
Procedure: as §1

MOLM-13 = conditions: CTG, 72 hours; for % inhibition at top conc.: highest concentration 10/50 μM; for IC50: read-out: Absolute IC50
Procedure: as §1

MDA-MB-231 = conditions: CTG, 72 hours; for % inhibition at top conc.: highest concentration 10/50 μM
Procedure: as §1

PC-3 = conditions: CTG, 72 hours; for % inhibition at top conc.: highest concentration 10/50 μM; for IC50: read-out: Absolute IC50
Procedure: as §1

SF268 = conditions: 72 hours; for % inhibition at top conc.: highest concentration 10/50 μM; for IC50: read-out: Absolute IC50
Procedure: as §1

HL-60 = conditions: CTG, 72 hours; for % inhibition at top conc.: highest concentration 10/50 μM; for IC50: read-out: Absolute IC50
Procedure: as §1

U266B1 = conditions: CTG, 72 hours; for % inhibition at top conc.: highest concentration 10/50 μM; for IC50: read-out: Absolute IC50
Procedure: as §1

NCI-H1299 = conditions: CTG, 72 hours; for % inhibition at top conc.: highest concentration 10/50 μM; for IC50: read-out: Absolute IC50
Procedure: as §1

CNE-2Z = conditions: CTG, 72 hours; for % inhibition at top conc.: highest concentration 10/50 μM; for IC50: read-out: Absolute IC50
Procedure: as §1

T84 = conditions: CTG, 72 hours; for % inhibition at top conc.: highest concentration 10/50 μM; for IC50: read-out: Absolute IC50
Procedure: as §1

HCT-116 = conditions: CTG, 72 hours; for % inhibition at top conc.: highest concentration 10/50 μM; for IC50: read-out: Absolute IC50
Procedure: as §1

SNU-761 = conditions: CTG, 72 hours; for % inhibition at top conc.: highest concentration 10/50 μM; for IC50: read-out: Absolute IC50
Procedure: as §1

DLD-1 = conditions: CTG, 72 hours; for % inhibition at top conc.: highest concentration 10/50 μM; for IC50: read-out: Absolute IC50
Procedure: as §1

OE19 = conditions: CTG, 72 hours; for % inhibition at top conc.: highest concentration 10/50 μM; for IC50: read-out: Absolute IC50
Procedure: as §1

AMO-1 = conditions: 72 hours; for % inhibition at top conc.: highest concentration 10/50 μM; for IC50: read-out: Absolute IC50
Procedure: as §1

A549 = conditions: CTG, 72 hours; for % inhibition at top conc.: highest concentration 10/50 μM
Procedure: as §1

MCF 10A = conditions: CTG, 72 hours; for % inhibition at top conc.: highest concentration 10/50 μM; for IC50: read-out: Absolute IC50
Procedure: as §1

MDA-MB-453 = conditions: CTG, 72 hours; for % inhibition at top conc.: highest concentration 10/50 μM; for IC50: read-out: Absolute IC50
Procedure: as §1

[1] = Homo sapiens, read-out: Absolute IC50

Q: Which “% inhibition at top conc.” value (H69AR) does the source give for `N.N.[Cl][Pt][Cl]` [Cisplatin, reference compound] here?
A: 94.93%

Q: And the IC50 (H69AR)?
A: 5.65 µM

Q: And the “% inhibition at top conc.” value (LN-229)?
A: 97.32%

Q: And the IC50 (LN-229)?
A: 11.8 µM

Q: And the “% inhibition at top conc.” value (SK-N-FI)?
A: 99.81%

Q: What about the IC50 (SK-N-FI) of the same compound?
A: 10.2 µM

Q: And the “% inhibition at top conc.” value (NCI-H82)?
A: 99.63%

Q: What about the IC50 (NCI-H82) of the same compound?
A: 4000 nM

Q: And the “% inhibition at top conc.” value (MOLM-13)?
A: 99.99%

Q: And the IC50 (MOLM-13)?
A: 770 nM

Q: And the “% inhibition at top conc.” value (MDA-MB-231)?
A: 85.71%

Q: What about the “% inhibition at top conc.” value (PC-3) of the same compound?
A: 85.52%

Q: And the IC50 (PC-3)?
A: 5.34 µM

Q: And the “% inhibition at top conc.” value (SF268; CTG)?
A: 97.98%

Q: And the IC50 (SF268; CTG)?
A: 2870 nM

Q: What about the “% inhibition at top conc.” value (HL-60) of the same compound?
A: 99.99%

Q: What about the IC50 (HL-60) of the same compound?
A: 1560 nM

Q: What about the “% inhibition at top conc.” value (U266B1) of the same compound?
A: 98.85%

Q: What about the IC50 (U266B1) of the same compound?
A: 14.3 µM

Q: What about the “% inhibition at top conc.” value (NCI-H1299) of the same compound?
A: 98.91%

Q: What about the IC50 (NCI-H1299) of the same compound?
A: 3.69 µM

Q: What about the “% inhibition at top conc.” value (CNE-2Z) of the same compound?
A: 96.44%

Q: And the IC50 (CNE-2Z)?
A: 1180 nM

Q: What about the “% inhibition at top conc.” value (T84) of the same compound?
A: 87.03%

Q: What about the IC50 (T84) of the same compound?
A: 5.05 µM

Q: What about the “% inhibition at top conc.” value (HCT-116) of the same compound?
A: 95.72%

Q: And the IC50 (HCT-116)?
A: 3150 nM

Q: What about the “% inhibition at top conc.” value (SNU-761) of the same compound?
A: 99.92%

Q: What about the IC50 (SNU-761) of the same compound?
A: 4.52 µM

Q: What about the “% inhibition at top conc.” value (DLD-1) of the same compound?
A: 98.93%

Q: What about the IC50 (DLD-1) of the same compound?
A: 5.3 µM

Q: And the “% inhibition at top conc.” value (OE19)?
A: 62.99%

Q: What about the IC50 (OE19) of the same compound?
A: 25.8 µM

Q: What about the “% inhibition at top conc.” value (AMO-1; CTG) of the same compound?
A: 99.99%

Q: And the IC50 (AMO-1; CTG)?
A: 950 nM

Q: And the “% inhibition at top conc.” value (A549)?
A: 96.72%

Q: And the “% inhibition at top conc.” value (MCF 10A)?
A: 99.51%

Q: And the IC50 (MCF 10A)?
A: 13.2 µM

Q: What about the “% inhibition at top conc.” value (MDA-MB-453) of the same compound?
A: 95.15%

Q: What about the IC50 (MDA-MB-453) of the same compound?
A: 12.9 µM

Q: What does the source list for `Cc1ccc(C(=O)Nc2cc(N3CCNCC3)ccc2-c2ccc(/C=C/C(=O)NO)cc2C)cc1.Cl` [ZZY-003]?
A: % inhibition at top conc. (H69AR): 96.23%; IC50 (H69AR; Homo sapiens): 4.36 µM; % inhibition at top conc. (LN-229): 99.97%; IC50 (LN-229; Homo sapiens): 1.57 µM; % inhibition at top conc. (SK-N-FI): 99.95%; IC50 (SK-N-FI; Homo sapiens): 3.17 µM; % inhibition at top conc. (NCI-H82): 99.94%; IC50 (NCI-H82; Homo sapiens): 370 nM; % inhibition at top conc. (MOLM-13): 99.99%; IC50 (MOLM-13; Homo sapiens): 210 nM; % inhibition at top conc. (MDA-MB-231): 92.06%; IC50 (MDA-MB-231; [1]): 1810 nM; % inhibition at top conc. (PC-3): 96.56%; IC50 (PC-3; Homo sapiens): 1.38 µM; % inhibition at top conc. (SF268; CTG): 99.82%; IC50 (SF268; Homo sapiens, SF-268, CTG): 1090 nM; % inhibition at top conc. (HL-60): 99.93%; IC50 (HL-60; Homo sapiens): 310 nM; % inhibition at top conc. (U266B1): 98.03%; IC50 (U266B1): 0.64 µM; % inhibition at top conc. (NCI-H1299): 99.94%; IC50 (NCI-H1299; Homo sapiens): 3.4 µM; % inhibition at top conc. (CNE-2Z): 99.84%; IC50 (CNE-2Z; Homo sapiens, CNE2Z): 1520 nM; % inhibition at top conc. (T84): 98.70%; IC50 (T84; Homo sapiens): 9.95 µM; % inhibition at top conc. (HCT-116): 99.94%; IC50 (HCT-116; Homo sapiens): 430 nM; % inhibition at top conc. (SNU-761): 99.35%; IC50 (SNU-761): 9.32 µM; % inhibition at top conc. (DLD-1): 97.98%; IC50 (DLD-1; Homo sapiens): 5.13 µM; % inhibition at top conc. (OE19): 98.95%; IC50 (OE19; Homo sapiens): 0.78 µM; % inhibition at top conc. (AMO-1; CTG): 99.95%; IC50 (AMO-1; Homo sapiens, AMO1, CTG): 1520 nM; % inhibition at top conc. (A549): 95.22%; IC50 (A549; [1]): 2210 nM; % inhibition at top conc. (MCF 10A): 97.73%; IC50 (MCF 10A; Homo sapiens): 1.49 µM; % inhibition at top conc. (MDA-MB-453): 99.93%; IC50 (MDA-MB-453; Homo sapiens): 0.19 µM
